Tests used:
proAR = assay: Flow cytometric analysis of cell surface proAR (proAR shedding); format: cell-based, human; conditions: for cell surface content of endogenous proAR after agonist treatment: head and neck cancer cells, LPA 10 μM
Protocol: (§1) FIG. 1 GPCR stimulation of the EGFR Involves a ligand-dependent mechanism and is accompanied by AR release from the cell surface. a, EGFR signal transactivation requires metalloprotease activity and the EGFR extracellular domain. SCC-9 cells were pre-incubated with marimastat (BB2516, 10 μM; 20 min), anti-EGFR antibody ICR-3R (20 μg/mL; 60 min) or PTX (100 ng/mL; 18 h) and treated with LPA (10 μM), carbachol (Car, 1 mM), EGF (7.5 ng/mL) or pervanadate (PV, 1 mM) for 3 min. Following immunoprecipitation (IP) of cell extracts with anti-EGFR antibody proteins were immunoblotted (IB) with anti-phosphotyrosine antibody and re-probed with anti-EGFR antibody. b, Flow cytometric analysis of EGF-like precursor expression. SCC-9 cells were collected and stained for surface HB-EGF, TGFa or AR and analyzed by flow cytometry. Control cells were labelled with FITC-conjugated secondary antibody alone. c, LPA-induced proteolytic processing of proAR. SCC-9 cells were pre-incubated with batimastat (BB94, 10 μM) or PTX and stimulated with LPA or TPA (1 μM) for 5 min. Cells were collected and analyzed for cell surface AR density by flow cytometry. d, GPCR-induced proteolytic release of AR. SCC-9 cells were pre-incubated with batimastat or vehicle followed by stimulation with agonists as indicated for 120 min. Conditioned medium was collected and analyzed for total AR amount by ELISA. Each bar is the average of triplicate values (mean±s.d.). *, P<0.03 for the difference between agonists vs. BB94+agonists.
(§2) ACS analysis was performed as described before (1). Cells were stained with ectodomain-specific antibodies against HB-EGF, AR (R&D Systems) or TGFa (Oncogene, Boston; Mass.). After washing with PBS, cells were incubated with FITC-conjugated secondary antibody and analyzed on a Becton Dickinson FACScalibur flow cytometer.

proTGFα = assay: Flow cytometric analysis of proTGFα ectodomain cleavage; format: cell-based, human; conditions: HNSCC cells; data not shown
Protocol: as §2

proHB-EGF = assay: Flow cytometric analysis of proHB-EGF ectodomain cleavage; format: cell-based, human; conditions: HNSCC cells; data not shown
Protocol: as §2

amphiregulin (AR) = assay: AR release into cell culture medium (sandwich ELISA); format: cell-based, human; conditions: SCC-9 cells; compared to LPA stimulation
Protocol: as §1, with “SCC-9 cells were pre-incubated with batimastat (BB94, 10 μM) or PTX and stimulated with LPA or TPA (1 μM) for 5 min.” left out, “SCC-9 cells were pre-incubated with batimastat or vehicle followed by stimulation with agonists as indicated for 120 min.” left out, “Each bar is the average of triplicate values (mean±s.d.). *, P<0.03 for the difference between agonists vs. BB94+agonists.” left out
Concentrations of free AR were determined by sandwich ELISA (R&D Systems) using monoclonal anti-AR capture antibody and biotinylated polyclonal detection antibody. […] Values are expressed as mean±s.d. of at least triplicate samples. […]

EGFR = EGFR tyrosine phosphorylation / EGFR signal transactivation (IP with anti-EGFR, anti-phosphotyrosine immunoblot); format: cell-based, human; conditions: for GPCR-induced EGFR tyrosine phosphorylation (EGFR transactivation signal): SCC-9 cells, stimulation with LPA or carbachol
Protocol: as §1
FIG. 2 GPCR stimulation requires AR to trigger EGFR-dependent signals and biological responses. a, Blockade of EGF-like growth factor precursor expression by RNA interference (RNAi). SCC-9 cells were transfected with siRNA for proAR, proHB-EGF or proTGFα cultured for 2 days and analyzed for gene expression by RT-PCR as indicated or b, stimulated with LPA or carbachol and assayed for EGFR tyrosine phosphorylation content. c, Requirement of AR for LPA-induced cell migration. SIRNA-transfected SCC-9 cells were analyzed for transwell migration toward fibronectin as chemoattractant. Each bar is the average of quadruplicate values (mean±s.d.). *, P<0.001 for control siRNA+LPA vs. proAR siRNA+LPA. d, Effect of anti-AR neutralizing antibody and heparin on GPCR-induced EGFR and SHC tyrosine phosphorylation. […] Phosphorylated ERK1/2 was detected by immunoblotting total lysates with anti-phospho-ERK antibody. […] Quantitative analysis of ERK phosphorylation from three independent experiments (mean±s.d.). *, P<0.05 for the difference between LPA vs. inhibitors+LPA. […] Cells were then pulse-labelled with ^3H-thymidine and thymidine incorporation was measured by liquid-scintillation counting. Quantitative analysis from three independent experiments (mean±s.d.). *, P<0.001 for LPA vs. inhibitors+LPA. […]

SCC-15 cells = assay: 3H-thymidine incorporation assay (DNA synthesis); format: cell-based, human; conditions: 18 h
From the text: (§3) FIG. 2 GPCR stimulation requires AR to trigger EGFR-dependent signals and biological responses. a, Blockade of EGF-like growth factor precursor expression by RNA interference (RNAi). SCC-9 cells were transfected with siRNA for proAR, proHB-EGF or proTGFα cultured for 2 days and analyzed for gene expression by RT-PCR as indicated or b, stimulated with LPA or carbachol and assayed for EGFR tyrosine phosphorylation content. c, Requirement of AR for LPA-induced cell migration. SIRNA-transfected SCC-9 cells were analyzed for transwell migration toward fibronectin as chemoattractant. […] Phosphorylated ERK1/2 was detected by immunoblotting total lysates with anti-phospho-ERK antibody. […] Quantitative analysis of ERK phosphorylation from three independent experiments (mean±s.d.). *, P<0.05 for the difference between LPA vs. inhibitors+LPA. […] Cells were then pulse-labelled with ^3H-thymidine and thymidine incorporation was measured by liquid-scintillation counting. Quantitative analysis from three independent experiments (mean±s.d.). *, P<0.001 for LPA vs. inhibitors+LPA.
For the ^3H-thymidine incorporation assay (5), SCC-15 cells were seeded into 12-well plates at 3×10^4 cells/well. […] After 18 h cells were pulse-labelled with ^3H-thymidine (1 μCi/ml) for 4 h, and thymidine incorporation was measured by trichloroacetic acid precipitation and subsequent liquid-scintillation counting.

TACE = TACE (Homo sapiens, UniProt P78536); conditions: reference (25); cited from earlier work
ERK1/2 = assay: ERK/MAPK activation (anti-phospho-ERK immunoblot); format: cell-based, human; conditions: SCC-9 and SCC-15 cells
From the text: as §3
Cells were lysed and proteins immunoprecipitated as described (13). […] Phosphotyrosine was detected with the 4G10 monoclonal antibody (UBI, Lake Placid, N.Y.). […]

Akt/PKB = Akt/PKB phosphorylation (anti-phospho-Akt immunoblot); format: cell-based, human; conditions: head and neck cancer cells

Sequence of TACE (P78536 215-824): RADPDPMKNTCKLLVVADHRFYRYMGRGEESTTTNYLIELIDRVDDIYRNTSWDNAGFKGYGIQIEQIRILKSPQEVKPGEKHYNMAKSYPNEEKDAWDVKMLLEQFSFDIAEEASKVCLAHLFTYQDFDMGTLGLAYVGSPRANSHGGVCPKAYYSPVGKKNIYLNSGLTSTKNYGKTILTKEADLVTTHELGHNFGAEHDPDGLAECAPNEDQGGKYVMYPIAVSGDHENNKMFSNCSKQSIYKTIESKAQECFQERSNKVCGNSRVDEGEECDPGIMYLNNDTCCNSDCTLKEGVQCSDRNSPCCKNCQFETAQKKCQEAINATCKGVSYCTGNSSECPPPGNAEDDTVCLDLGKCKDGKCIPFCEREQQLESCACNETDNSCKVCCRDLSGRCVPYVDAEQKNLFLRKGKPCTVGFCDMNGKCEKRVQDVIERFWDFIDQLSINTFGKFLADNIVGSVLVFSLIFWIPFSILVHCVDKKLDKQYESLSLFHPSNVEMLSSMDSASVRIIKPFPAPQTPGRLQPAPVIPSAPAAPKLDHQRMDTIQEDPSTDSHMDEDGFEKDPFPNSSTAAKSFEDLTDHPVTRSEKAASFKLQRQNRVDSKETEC

CCCCCCCCCCCCCC(=O)O[C@@H]1[C@@H](C)[C@@]2(O)[C@@H](C=C(CO)C[C@]3(O)C(=O)C(C)=C[C@@H]23)[C@@H]2C(C)(C)[C@]12OC(C)=O [TPA]
cell surface content of endogenous proAR after agonist treatment (proAR; TPA 1 µM as printed): reduced
proteolytic (ectodomain) cleavage of proTGFα by agonist (proTGFα): resulted in ectodomain cleavage
proteolytic (ectodomain) cleavage of proHB-EGF by agonist (proHB-EGF): resulted in ectodomain cleavage

C[N+](C)(C)CCOC(N)=O [carbachol]
AR release in response to agonist (amphiregulin (AR)): substantially lower compared to LPA stimulation

CNC(=O)[C@@H](NC(=O)[C@H](CC(C)C)[C@H](O)C(=O)NO)C(C)(C)C [marimastat]
GPCR-induced EGFR tyrosine phosphorylation (EGFR transactivation signal) (EGFR): sensitive

COc1cc2ncnc(Nc3cccc(Cl)c3)c2cc1OC [tyrphostin AG1478]
DNA synthesis triggered by LPA (SCC-15 cells): decreased DNA synthesis by LPA to below basal level

Timp-1: human Timp-1; ectopic expression by retroviral transduction
GPCR-induced EGFR tyrosine phosphorylation (EGFR transactivation signal) (EGFR): not
proteolytic activity of TACE in vitro (TACE): not

heparin
LPA-induced EGFR tyrosine phosphorylation (EGFR signal transactivation) (EGFR; LPA 10 μM, 3 min, SCC-9 (anti-AR also SCC-4, SCC-15, SCC-25)): completely blocked
LPA-induced ERK activation (ERK1/2): prevented

lysophosphatidic acid [LPA]
cell surface content of endogenous proAR after agonist treatment (proAR; TPA 1 µM): reduced
proteolytic (ectodomain) cleavage of proTGFα by agonist (proTGFα): not able to induce
proteolytic (ectodomain) cleavage of proHB-EGF by agonist (proHB-EGF): not able to induce
phosphorylation of Akt/PKB at Ser-473 by agonist (Akt/PKB): markedly increased

pertussis toxin [PTX]
LPA-induced ectodomain cleavage (shedding) of proAR (proAR; SCC-9 cells, batimastat 10 μM, PTX 100 ng/mL): partially inhibited

B1: Timp-3: tissue inhibitor of metalloprotease-3; ectopic expression by retroviral transduction (protein)
chain: CTCSPSHPQDAFCNSDIVIRAKVVGKKLVKEGPFGTLVYTIKQMKMYRGFTKMPHVQYIHTEASESLCGLKLEVNKYQYLLTGRVYDGKMYTGLCNFVERWDQLTLSQRKGLNYRYHLGCNCKIKSCYYLPCFVTSKNECLWTDMLSNFGYPGYQSKHYACIRQKGGYCSWYRGWAPPDKSIINATDP
modifications: left off: small tags and cut ends
notes: ectopic expression by retroviral transduction
GPCR-induced EGFR tyrosine phosphorylation (EGFR transactivation signal) (EGFR): inhibited
proteolytic activity of TACE in vitro (TACE): inhibited

— US7524495B2, “Inhibition of TACE or amphiregulin for the modulation of EGF receptor signal transactivation” (Max-Planck-Gesellschaft zur Foerderung der Wissenschaften …, priority 2003, dated 2009)
